These results are taken from ChEMBL document CHEMBL1130975, “Preparation of alpha-keto ester enol acetates as potential prodrugs of human neutrophil elastase inhibitors” (Bioorg Med Chem Lett, 1998).

Test [1] concerns the target T1, Neutrophil elastase (Homo sapiens, UniProt P08246).
T1 sequence (P08246 whole entry): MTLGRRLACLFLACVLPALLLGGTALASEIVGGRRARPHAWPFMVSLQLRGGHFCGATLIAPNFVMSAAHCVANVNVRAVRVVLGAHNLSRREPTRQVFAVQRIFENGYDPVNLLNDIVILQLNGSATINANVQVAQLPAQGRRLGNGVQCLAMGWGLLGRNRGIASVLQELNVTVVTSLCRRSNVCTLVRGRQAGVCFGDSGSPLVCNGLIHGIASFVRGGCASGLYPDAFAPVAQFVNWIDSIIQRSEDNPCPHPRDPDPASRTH
Put plainly: Tested for rate of substrate hydrolysis in the presence of human neutrophil elastase.

The target of test [2] is T2, Neutrophil elastase (Homo sapiens) (UniProt P08246).
T2 sequence (whole entry): T1 sequence (P08246 whole entry)
Briefly: Tested for rate of substrate hydrolysis in the presence of human neutrophil elastase at a concentration of 1 uM.

Test [3] concerns the target T2, Neutrophil elastase (Homo sapiens). Briefly: Tested for rate of substrate hydrolysis in the presence of human neutrophil elastase at a concentration of 9 uM.
The target of test [4] is T3, S-formylglutathione hydrolase (Sus scrofa) (UniProt Q9GJT2).
T3 sequence (whole entry): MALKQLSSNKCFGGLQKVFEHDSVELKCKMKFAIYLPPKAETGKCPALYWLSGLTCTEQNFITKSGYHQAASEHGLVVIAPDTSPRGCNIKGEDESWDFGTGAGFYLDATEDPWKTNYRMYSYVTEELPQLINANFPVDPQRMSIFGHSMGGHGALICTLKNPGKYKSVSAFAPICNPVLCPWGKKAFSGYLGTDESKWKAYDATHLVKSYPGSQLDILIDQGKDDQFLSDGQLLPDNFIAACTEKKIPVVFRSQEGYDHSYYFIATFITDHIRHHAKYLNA
Put plainly: Tested for rate of substrate hydrolysis in the presence of porcine kidney esterase at a concentration of 9 uM.

Test [5] addresses T3, S-formylglutathione hydrolase (Sus scrofa). Briefly: Tested for rate of substrate hydrolysis in the presence of porcine kidney esterase at a concentration of 1 uM.
Test [6] concerns the target T2, Neutrophil elastase (Homo sapiens). Briefly: Tested for rate of substrate hydrolysis in the presence of human neutrophil elastase at a concentration of 10 nM.
For test [7] the target is unchanged. Put plainly: Tested for rate of substrate hydrolysis in the presence of human neutrophil elastase at a concentration of 45 nM.
The target in test [8] is T3, S-formylglutathione hydrolase (Sus scrofa). Particulars: 45 nM.
Description: Tested for rate of substrate hydrolysis in the presence of porcine kidney esterase at a concentration of 45 nM
The target is the same in test [9]. The conditions noted are these: 10 nM.
Description: Tested for rate of substrate hydrolysis in the presence of porcine kidney esterase at a concentration of 10 nM

Consider `COC(=O)C(=O)[C@@H](NC(=O)C1CCCN1C(=O)[C@H](C)NC(=O)[C@H](C)NC(=O)c1ccc(C(=O)NS(=O)(=O)c2ccc(Cl)cc2)cc1)C(C)C` (stereo not given in full), for which the Ki – broadly, a dissociation constant, usually derived from enzyme kinetics or from competition with a known ligand – in [1] amounted to 2 nM.

As to `COC(=O)CCC(=O)N[C@@H](C)C(=O)N[C@@H](C)C(=O)N1CCC[C@H]1C(=O)N/C(=C(/OC(C)=O)C(=O)OC)C(C)C`, the Rate came out at 81% in [2], 35% in test [3], 2.8% in [4] and 24% in test [5].

As to `COC(=O)CCC(=O)N[C@@H](C)C(=O)N[C@@H](C)C(=O)N1CCC[C@H]1C(=O)N[C@H](C(=O)C(=O)OC)C(C)C`, the Ki in test [1] is 200 nM.

As to `COC(=O)/C(OC(C)=O)=C(\NC(=O)[C@@H]1CCCN1C(=O)[C@H](C)NC(=O)[C@H](C)NC(=O)c1ccc(C(=O)NS(=O)(=O)c2ccc(Cl)cc2)cc1)C(C)C`, the Rate in [6] is 99%; in [7], 94%; in test [8], 37%; in test [9] it was 76%.
